Measured values from publication PMC6476888, “Design and synthesis of anticancer 1-hydroxynaphthalene-2-carboxanilides with a p53 independent mechanism of action” (Scientific Reports, 2019).
Values joined by “and” are separate entries in the source; they are usually repeats but may differ in a detail not shown here. Identical values can stand only once. “Also recorded” adds a separate entry of the source. Like-named read-outs stand apart in the source and are kept apart here.

How the values were obtained:
NHDF = assay: Cytotoxicity (MTS, 72 h) against normal human fibroblasts; format: cell-based; conditions: for IC50: Homo sapiens, NHDF, MTS, 72 h incubation
HCT116^+/+ = assay: Antiproliferative assay (MTS, 72 h) on HCT116 wild type; format: cell-based, human; conditions: for IC50: Homo sapiens, HCT-116
CT-DNA = assay: Spectrophotometric DNA intercalation assay; format: binding, calf; conditions: for Changes in absorbance: bound to CT-DNA (18 µM), 1.5 h 37 °C, Tris-HCl pH 7.9; for % hypochromism / Δε: bound to CT-DNA, for CP-31398 first value (312 nm band); for red shift: wavelengths of maximum absorption, individual vs DNA-bound compound
Text: The fused aromatic rings of the naphthalene moiety and halogen substituents in aniline may guarantee good intercalating properties[71],[72]. On the other hand, the intercalation of DNA may explain the high activity against both the wild-type and p53 mutants as was reported for a series of styrylquinolines. Binding to DNA causes the bases to mismatch or cleave, which results in the arrest of the cell cycle and apoptosis. The effectiveness of the p53 system is one of the most important factors in the response to therapy. We tested the intercalating properties of the selected compounds in a spectrophotometric assay on calf-thymus DNA. The absorption spectra of the tested compounds in the absence and presence of CT-DNA are presented in Figure S1 Supplementary Information and the spectral properties with doxorubicine and CP-31398 are summarized in Table 2.
For the DNA binding studies, Calf-thymus DNA (CT-DNA) was purchased from Sigma- Aldrich. The lyophilized CT-DNA was dissolved in 10 mM Tris-HCl, pH 7.9, mixed gently and left overnight at 4 °C. The purity of the CT-DNA solution was determined by measuring the ratio of UV absorbance at 260 and 280 nm. […] Then, the concentration of CT-DNA was determined from the absorbance at 260 nm using an extinction coefficient of 6600 M^−1cm^−1. The tested compounds including DOX and CP-31398 were dissolved to a concentration of 8.35 mM in DMSO, which was then used as the stock solution for preparing the various concentrations (25, 12.5, 6 and 3 µM) in 1 mL in 10 mM of Tris-HCl (pH 7.9). Afterwards, 18 µM CT-DNA was added to the prepared solutions, which were incubated for 1.5 h at 37 °C with occasional vortexing. The absorption spectra were measured using a Hitachi U-2900 spectrophotometer in the range of 200–500 nm. All absorption spectra were imported into OriginPro 8.0 and compared.

[1] = MTS, 72 h incubation, read-out: Activity IC50 HCT116^+/+

What does the source list for `O=C(Nc1cc(C(F)(F)F)cc(C(F)(F)F)c1Cl)c1ccc2ccccc2c1O` [5u]?
IC50 (NHDF): 16.3 ± 1.28 µM; selectivity for the wild type over p53 null cells (HCT116^+/+): roughly four times more active against the wild type; IC50 (HCT116^+/+; [1]): 0.72 ± 0.28 µM; Changes in absorbance (CT-DNA): hypochromism; % hypochromism (CT-DNA): 14%; Δε (CT-DNA): 922.2 M⁻¹ cm⁻¹; red shift (CT-DNA): small red-shift and 2 nm

What does the source list for `O=C(Nc1cc(C(F)(F)F)cc(C(F)(F)F)c1)c1ccc2ccccc2c1O` [7f]?
IC50 (NHDF): 3.55 ± 0.76 µM; IC50 (HCT116^+/+; [1]): 0.46 ± 0.05 µM; IC50 (HCT116^+/+; submicromolar activity level, read-out: IC50 for the HCT116 wild type): 0.464 µM; Changes in absorbance (CT-DNA): rather low hypochromic effect; also recorded: hypochromism; % hypochromism (CT-DNA): 5.7%; Δε (CT-DNA): 244.4 M⁻¹ cm⁻¹; red shift (CT-DNA): no wavelength shift and 0 nm

For `O=C(Nc1ccc(F)c(Cl)c1)c1ccc2ccccc2c1O` [5s], which IC50 (NHDF) is on record?
The IC50 was greater than 25 µM.

What about the selectivity index (NHDF; cytotoxicity against the normal cell line vs HCT116) of the same compound?
Its selectivity index is greater than 30.

And the IC50 (HCT116^+/+; [1])?
Its IC50 is 6.87 ± 2.48 µM.

And the Changes in absorbance (CT-DNA)?
Its Changes in absorbance is “hypochromism”.

And the “% hypochromism” value (CT-DNA)?
Its value is 6.5%.

What about the Δε (CT-DNA) of the same compound?
Its Δε is 255.6 M⁻¹ cm⁻¹.

And the red shift (CT-DNA)?
The red shift was 2 nm.
